Measured values published in ChEMBL document CHEMBL3301562, “MMV Box screening against Plasmodium falciparum protein kinases and aminoacyl tRNA synthetases”.

Assays:
Assay type in all cases: functional
Proline--tRNA ligase = molecular target: T1, Proline--tRNA ligase (Plasmodium falciparum (isolate 3D7), UniProt Q8I5R7); assay: MMV: ProRS recombinant Plasmodium falciparum Prolyl-tRNA-synthetase, assay with yeast tRNA, ATP, and proline and 3 uM MMV malaria box compound, assay read out with kinase glo as % inhibition.
T1 sequence (Q8I5R7 whole entry): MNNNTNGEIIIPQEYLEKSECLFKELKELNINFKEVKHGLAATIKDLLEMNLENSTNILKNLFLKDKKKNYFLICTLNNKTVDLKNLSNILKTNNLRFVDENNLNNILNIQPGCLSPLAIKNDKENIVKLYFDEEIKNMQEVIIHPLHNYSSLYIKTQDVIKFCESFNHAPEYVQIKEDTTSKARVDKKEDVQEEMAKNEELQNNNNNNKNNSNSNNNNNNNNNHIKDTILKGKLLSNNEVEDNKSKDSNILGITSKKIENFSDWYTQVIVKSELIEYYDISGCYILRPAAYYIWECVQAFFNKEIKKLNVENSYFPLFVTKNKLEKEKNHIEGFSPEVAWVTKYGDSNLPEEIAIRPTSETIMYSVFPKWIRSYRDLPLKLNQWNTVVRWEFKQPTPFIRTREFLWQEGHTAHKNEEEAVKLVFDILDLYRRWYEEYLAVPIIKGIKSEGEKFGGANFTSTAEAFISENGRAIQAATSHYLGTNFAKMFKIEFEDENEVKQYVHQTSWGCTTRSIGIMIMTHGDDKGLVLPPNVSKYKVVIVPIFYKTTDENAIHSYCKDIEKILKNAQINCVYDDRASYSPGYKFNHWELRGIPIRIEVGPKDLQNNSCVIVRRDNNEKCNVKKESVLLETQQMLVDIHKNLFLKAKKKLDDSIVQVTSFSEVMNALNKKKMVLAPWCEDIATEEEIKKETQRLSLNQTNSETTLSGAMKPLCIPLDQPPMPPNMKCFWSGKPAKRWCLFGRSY

[1] = molecular target: T2, Mitogen-activated protein kinase (Plasmodium falciparum, UniProt Q25917); assay: Final concentrations were 1 uM ATP, 0.5 mM DTT, 1 mM MgCl2, 0.5 mg/mL BSA, and 10 ug/ml MAP2 in a buffer of 50 mM HEPES (pH 7.0). 0.5 mg/mL histone III-S served as the substrate (13); 100 uM AMP-PNP, an ATP analog, was used as a control inhibitor. Incubation time was 4 hours.
T2 sequence (Q25917 whole entry): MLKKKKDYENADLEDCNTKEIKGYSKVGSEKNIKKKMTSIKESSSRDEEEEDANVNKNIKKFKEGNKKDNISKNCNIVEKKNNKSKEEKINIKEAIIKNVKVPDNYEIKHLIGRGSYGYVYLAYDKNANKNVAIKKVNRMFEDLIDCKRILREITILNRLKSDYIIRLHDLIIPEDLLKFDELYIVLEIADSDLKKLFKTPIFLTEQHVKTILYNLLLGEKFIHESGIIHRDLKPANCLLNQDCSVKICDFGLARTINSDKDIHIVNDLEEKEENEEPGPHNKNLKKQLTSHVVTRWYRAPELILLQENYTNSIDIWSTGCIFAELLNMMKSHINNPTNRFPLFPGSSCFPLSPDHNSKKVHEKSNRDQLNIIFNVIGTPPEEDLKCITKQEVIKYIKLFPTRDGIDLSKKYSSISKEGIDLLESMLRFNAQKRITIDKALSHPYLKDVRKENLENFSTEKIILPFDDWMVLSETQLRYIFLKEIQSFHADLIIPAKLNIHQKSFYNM

[2] = molecular target: T3, Putative uncharacterized protein pk7 (Plasmodium falciparum, UniProt O96214); assay: Final concentrations were 1 uM ATP, 2 mM DTT, 20 mM MgCl2, 2 mM MnCl2, 0.01% BSA, and 6 ug/ml PK7, in a buffer of 20 mM Tris-HCl (pH 7.5). The enzyme itself was the only substrate present (since autophosphorylation occurs); 100 uM 1NA-PP1 was used as a control inhibitor. Incubation time was 3 hours.
T3 sequence (O96214 whole entry): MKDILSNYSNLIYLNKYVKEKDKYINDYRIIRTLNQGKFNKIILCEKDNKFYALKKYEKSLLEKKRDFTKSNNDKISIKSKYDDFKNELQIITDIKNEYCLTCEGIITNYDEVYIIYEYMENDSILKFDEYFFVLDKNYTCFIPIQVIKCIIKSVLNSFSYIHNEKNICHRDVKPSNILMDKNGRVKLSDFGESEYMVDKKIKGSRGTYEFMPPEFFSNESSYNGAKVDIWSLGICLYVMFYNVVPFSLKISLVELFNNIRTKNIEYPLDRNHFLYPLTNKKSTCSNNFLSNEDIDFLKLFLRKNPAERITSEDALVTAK

Lysine--tRNA ligase = Lysine--tRNA ligase (Plasmodium falciparum (isolate 3D7), UniProt Q8IDJ8); assay: MMV: KRS recombinant Plasmodium falciparum Lysyl-tRNA-synthetase, assay with yeast tRNA, ATP, and lysine and 3 uM MMV malaria box compound, assay read out with kinase glo as % inhibition.
[3] = molecular target: T4, Calcium-dependent protein kinase 4 (Plasmodium falciparum (isolate 3D7), UniProt Q8IBS5); assay: MMV: CDPK4 Protein kinase inhibition assay using recombinant PfCDPK4, syntide2 peptide substrate, ATP and KinaseGlo to measure % inhibition at 1 uM MMV box compound.
T4 sequence (Q8IBS5 whole entry): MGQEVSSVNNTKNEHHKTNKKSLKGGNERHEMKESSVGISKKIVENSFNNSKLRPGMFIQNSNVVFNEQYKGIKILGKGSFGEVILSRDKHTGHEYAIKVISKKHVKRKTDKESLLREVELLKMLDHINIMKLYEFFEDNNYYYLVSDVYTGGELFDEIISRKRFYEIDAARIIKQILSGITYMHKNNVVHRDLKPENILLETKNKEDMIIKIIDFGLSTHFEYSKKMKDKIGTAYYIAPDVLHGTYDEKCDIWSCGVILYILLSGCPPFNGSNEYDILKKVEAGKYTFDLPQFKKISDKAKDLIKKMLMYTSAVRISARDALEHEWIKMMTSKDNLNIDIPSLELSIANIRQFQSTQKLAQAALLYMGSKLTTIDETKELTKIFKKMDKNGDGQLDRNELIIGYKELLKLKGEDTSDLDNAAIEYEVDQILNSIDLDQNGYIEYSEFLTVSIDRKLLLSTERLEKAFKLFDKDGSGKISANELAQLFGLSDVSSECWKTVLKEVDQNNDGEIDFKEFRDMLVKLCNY

[4] = molecular target: T5, Cdk-related protein kinase 6 (Plasmodium falciparum, UniProt O77239); assay: Final concentrations were 1.5 uM ATP, 5 mM MnCl2, and 15 ug/ml PK6 in a buffer of 100 mM Tris-HCl (pH 7.5). 50 ug/mL MBP was provided as the substrate; 10 uM staurosporine was used as a control inhibitor. Incubation time was 3 hours and 40 minutes.The catalytic activity of each kinase was considered proportional to ATP consumed, as determined from measurements of residual [ATP] with the luciferase-based reagent Kinase-Glo (Promega) following incubation. Luminescence (proportional to residual [ATP]) was measured on the plate readers FLx800 (BioTek Instruments, Winooski, VT, USA) and MicroBeta2.
T5 sequence (O77239 whole entry): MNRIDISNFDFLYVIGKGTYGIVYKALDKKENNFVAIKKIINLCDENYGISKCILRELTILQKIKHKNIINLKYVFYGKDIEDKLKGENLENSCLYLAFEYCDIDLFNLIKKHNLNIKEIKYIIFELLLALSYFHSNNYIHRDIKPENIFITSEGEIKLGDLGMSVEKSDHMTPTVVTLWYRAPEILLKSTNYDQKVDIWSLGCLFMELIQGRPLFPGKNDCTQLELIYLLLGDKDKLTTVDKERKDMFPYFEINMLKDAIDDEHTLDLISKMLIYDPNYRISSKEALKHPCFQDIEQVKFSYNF

[5] = molecular target: Calcium-dependent protein kinase 1 (Plasmodium falciparum, UniProt P62344); assay: MMV: CDPK1 Protein kinase inhibition assay using recombinant PfCDPK1, syntide 2 peptide substrate, ATP and KinaseGlo to measure % inhibition at 1 uM MMV box compound.
Chain of Calcium-dependent protein kinase 1 (P62344 whole entry): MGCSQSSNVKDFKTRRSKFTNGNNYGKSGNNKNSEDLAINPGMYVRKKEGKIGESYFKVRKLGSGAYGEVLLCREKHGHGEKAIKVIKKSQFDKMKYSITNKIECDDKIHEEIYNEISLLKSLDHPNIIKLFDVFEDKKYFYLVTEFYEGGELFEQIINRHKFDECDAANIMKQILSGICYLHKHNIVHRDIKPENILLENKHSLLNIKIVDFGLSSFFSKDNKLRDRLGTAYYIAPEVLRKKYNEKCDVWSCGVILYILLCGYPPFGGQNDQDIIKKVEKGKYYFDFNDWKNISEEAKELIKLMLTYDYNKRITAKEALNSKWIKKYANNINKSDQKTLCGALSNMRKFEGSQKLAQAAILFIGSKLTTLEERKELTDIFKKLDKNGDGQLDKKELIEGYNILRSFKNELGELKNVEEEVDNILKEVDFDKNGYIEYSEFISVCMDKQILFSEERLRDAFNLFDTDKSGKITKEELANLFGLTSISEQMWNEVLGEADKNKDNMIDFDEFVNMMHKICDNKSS

Chain of Lysine--tRNA ligase (Q8IDJ8 whole entry): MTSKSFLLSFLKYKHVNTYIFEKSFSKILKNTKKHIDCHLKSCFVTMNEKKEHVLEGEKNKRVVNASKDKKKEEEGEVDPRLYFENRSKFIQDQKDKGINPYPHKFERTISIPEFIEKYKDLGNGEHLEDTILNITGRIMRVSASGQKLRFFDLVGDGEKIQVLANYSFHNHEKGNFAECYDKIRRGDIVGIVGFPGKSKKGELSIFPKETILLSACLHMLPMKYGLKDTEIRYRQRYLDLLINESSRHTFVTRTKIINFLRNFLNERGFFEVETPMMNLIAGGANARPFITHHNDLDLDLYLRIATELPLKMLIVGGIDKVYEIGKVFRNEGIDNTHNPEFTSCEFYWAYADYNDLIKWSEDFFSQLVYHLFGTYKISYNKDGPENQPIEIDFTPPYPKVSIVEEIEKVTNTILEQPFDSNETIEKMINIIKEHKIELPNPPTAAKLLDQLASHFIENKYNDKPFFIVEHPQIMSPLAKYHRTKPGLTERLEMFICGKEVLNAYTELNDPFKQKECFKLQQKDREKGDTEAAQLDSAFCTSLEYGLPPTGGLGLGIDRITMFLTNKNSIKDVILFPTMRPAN

Row | Compound | IC50 (Proline--tRNA ligase) | IC50 [1] | IC50 [2] | IC50 (Lysine--tRNA ligase) | IC50 [3] | IC50 [4] | IC50 [5]
1 | COc1ccc(Nc2nc(N/N=C/c3ccc(O)cc3)nc(Nc3ccc([N+](=O)[O-])cc3)n2)cc1 | > 2500 nM | > 1000 nM | > 1000 nM | > 2500 nM | > 1000 nM | > 1000 nM | > 1000 nM
2 | Cc1sc(NC(=O)c2ccco2)c(C(c2cccnc2)N2CCC(Cc3ccccc3)CC2)c1C (stereo not given) | > 2500 nM | > 1000 nM | > 1000 nM | > 2500 nM | > 1000 nM | > 1000 nM | > 1000 nM
3 | O=C(NNc1cc(N2CCCC2)nc(N2CCCC2)n1)c1ccccc1 | > 2500 nM | > 1000 nM | > 1000 nM | > 2500 nM | > 1000 nM | > 1000 nM | > 1000 nM
4 | COC(=O)c1ccc(Cl)c2c1C1C=CCC1C(c1cccc3ccccc13)N2 (stereo not given) | > 2500 nM | > 1000 nM | > 1000 nM | > 2500 nM | > 1000 nM | > 1000 nM | > 1000 nM
5 | O=C(CCc1ccccc1)c1ccccc1OCC(O)CN1CCCCC1 (stereo not given) | > 2500 nM | > 1000 nM | > 1000 nM | > 2500 nM | > 1000 nM | > 1000 nM | > 1000 nM
6 | OC1=C2C(=Nc3ccccc3SC2c2ccccc2)c2ccccc21 (stereo not given) | > 2500 nM | > 1000 nM | > 1000 nM | > 2500 nM | > 1000 nM | > 1000 nM | > 1000 nM
7 | COc1cc(C(=O)Nc2ccc(-c3nc4ccccc4[nH]3)cc2)cc(OC)c1OC | > 2500 nM | > 1000 nM | > 1000 nM | > 2500 nM | > 1000 nM | > 1000 nM | > 1000 nM
8 | COC(=O)c1ccc(C2C3=C(O)CC(c4ccc(F)cc4)CC3=Nc3ccccc3N2C(=O)c2ccccc2)cc1 (stereo not given) | > 2500 nM | > 1000 nM | > 1000 nM | > 2500 nM | > 1000 nM | > 1000 nM | > 1000 nM
9 | CCCCNc1nc(NC(C)(C)C)nc(NC(C)(C)C)n1 | > 2500 nM | > 1000 nM | > 1000 nM | > 2500 nM | > 1000 nM | > 1000 nM | > 1000 nM
10 | CC(=O)c1sc(NC(=O)Nc2ccc(C)cc2C)nc1C | > 2500 nM | > 1000 nM | > 1000 nM | > 2500 nM | > 1000 nM | > 1000 nM | > 1000 nM
